Measurements reported in ChEMBL document CHEMBL6096649, “Enantiomeric C-6 fluorinated swainsonine derivatives as highly selective and potent inhibitors of α-mannosidase and α-l-rhamnosidase: Design, synthesis and structure-activity relationship study” (Eur J Med Chem, 2025).
The source made the active and inactive calls. The rule behind the calls is not given here.

organism: Bos taurus; test: Inhibition of bovine liver beta-glucuronidase using p-nitrophenyl glycoside as substrate assessed as release of p-nitrophenol at 1000 uM by spectrometric analysis relative to control; conditions: not given

SMILES	inhibition
O[C@H]1[C@H]2[C@H](O)CC(F)(F)CN2C[C@H]1O	16.7%
O[C@H]1[C@H]2[C@H](O)C[C@@H](F)CN2C[C@H]1O	2.6%
O[C@@H]1[C@@H]2[C@@H](O)CCCN2C[C@@H]1O	0%
O[C@H]1[C@H]2[C@H](O)C[C@H](F)CN2C[C@H]1O	6.8%

system: Prunus dulcis; test: Inhibition of almond Beta-glucosidase using p-nitrophenyl glycoside as substrate assessed as release of p-nitrophenol at 1000 uM by spectrometric analysis relative to control; conditions: not given

SMILES	inhibition
O[C@H]1[C@H]2[C@H](O)CC(F)(F)CN2C[C@H]1O	3.2%
O[C@H]1[C@H]2[C@H](O)C[C@@H](F)CN2C[C@H]1O	0.5%
O[C@@H]1[C@@H]2[C@@H](O)CCCN2C[C@@H]1O	7.4%
O[C@H]1[C@H]2[C@H](O)C[C@H](F)CN2C[C@H]1O	2.1%

organism: Bos taurus; test: Inhibition of bovine liver beta-glucosidase using p-nitrophenyl glycoside as substrate assessed as release of p-nitrophenol at 1000 uM by spectrometric analysis relative to control; conditions: not given

SMILES	inhibition
O[C@H]1[C@H]2[C@H](O)CC(F)(F)CN2C[C@H]1O	23.7%
O[C@H]1[C@H]2[C@H](O)C[C@@H](F)CN2C[C@H]1O	5.1%
O[C@@H]1[C@@H]2[C@@H](O)CCCN2C[C@@H]1O	33%
O[C@H]1[C@H]2[C@H](O)C[C@H](F)CN2C[C@H]1O	2.6%

target: T1, Alpha-mannosidase (Canavalia ensiformis) (UniProt C0HJB3); test: Inhibition of jack bean alpha-mannosidase using p-nitrophenyl glycoside as substrate assessed as release of p-nitrophenol at 1000 uM by spectrometric analysis relative to control; conditions: not given
T1 sequence (whole entry): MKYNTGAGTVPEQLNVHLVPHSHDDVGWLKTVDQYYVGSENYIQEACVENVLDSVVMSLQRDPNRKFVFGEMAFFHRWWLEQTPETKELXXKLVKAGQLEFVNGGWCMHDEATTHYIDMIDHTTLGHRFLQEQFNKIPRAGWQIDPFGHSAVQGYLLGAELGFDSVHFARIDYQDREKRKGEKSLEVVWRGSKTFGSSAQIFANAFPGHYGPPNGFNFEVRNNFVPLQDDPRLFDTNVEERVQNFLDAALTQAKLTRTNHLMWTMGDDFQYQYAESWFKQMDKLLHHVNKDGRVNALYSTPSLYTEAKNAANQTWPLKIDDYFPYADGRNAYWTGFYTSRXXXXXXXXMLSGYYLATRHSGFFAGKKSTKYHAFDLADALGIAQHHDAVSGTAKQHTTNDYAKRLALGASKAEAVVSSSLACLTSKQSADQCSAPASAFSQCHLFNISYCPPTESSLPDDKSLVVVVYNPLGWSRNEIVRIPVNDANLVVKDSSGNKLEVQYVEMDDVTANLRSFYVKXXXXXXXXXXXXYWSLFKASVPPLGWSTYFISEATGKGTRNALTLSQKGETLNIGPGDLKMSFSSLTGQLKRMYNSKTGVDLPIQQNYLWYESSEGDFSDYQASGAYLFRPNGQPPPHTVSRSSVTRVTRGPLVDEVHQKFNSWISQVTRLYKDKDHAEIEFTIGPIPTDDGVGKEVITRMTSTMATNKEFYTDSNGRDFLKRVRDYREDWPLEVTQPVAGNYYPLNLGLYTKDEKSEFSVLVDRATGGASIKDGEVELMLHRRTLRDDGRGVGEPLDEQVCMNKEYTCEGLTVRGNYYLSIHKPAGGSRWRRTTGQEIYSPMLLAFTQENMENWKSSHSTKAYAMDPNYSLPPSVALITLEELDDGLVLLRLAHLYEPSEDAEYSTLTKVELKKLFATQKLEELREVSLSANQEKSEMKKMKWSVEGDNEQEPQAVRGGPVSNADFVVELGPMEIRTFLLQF

SMILES	inhibition
O[C@H]1[C@H]2[C@H](O)CC(F)(F)CN2C[C@H]1O	0.44%
O[C@H]1[C@H]2[C@H](O)C[C@@H](F)CN2C[C@H]1O	0.5%
O[C@@H]1[C@@H]2[C@@H](O)CCCN2C[C@@H]1O	7.2%
O[C@H]1[C@H]2[C@H](O)C[C@H](F)CN2C[C@H]1O	0.78%

target: Alpha-galactosidase (Coffea arabica) (UniProt Q42656); test: Inhibition of coffee bean alpha-galactosidase using p-nitrophenyl glycoside as substrate assessed as release of p-nitrophenol at 1000 uM by spectrometric analysis relative to control; conditions: not given
Sequence (Q42656 16-378 limits assumed): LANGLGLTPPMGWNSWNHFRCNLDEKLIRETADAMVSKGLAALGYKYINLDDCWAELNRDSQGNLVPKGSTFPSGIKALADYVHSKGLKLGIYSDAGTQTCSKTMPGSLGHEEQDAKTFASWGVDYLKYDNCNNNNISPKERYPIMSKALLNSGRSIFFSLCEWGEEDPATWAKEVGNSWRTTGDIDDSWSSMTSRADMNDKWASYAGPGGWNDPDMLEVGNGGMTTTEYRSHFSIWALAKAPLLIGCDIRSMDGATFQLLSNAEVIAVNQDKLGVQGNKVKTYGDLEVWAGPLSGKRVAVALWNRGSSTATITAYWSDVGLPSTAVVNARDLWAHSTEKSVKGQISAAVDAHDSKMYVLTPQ

SMILES	inhibition
O[C@H]1[C@H]2[C@H](O)CC(F)(F)CN2C[C@H]1O	0.6%
O[C@H]1[C@H]2[C@H](O)C[C@@H](F)CN2C[C@H]1O	0%
O[C@@H]1[C@@H]2[C@@H](O)CCCN2C[C@@H]1O	0%
O[C@H]1[C@H]2[C@H](O)C[C@H](F)CN2C[C@H]1O	0%

system: Aspergillus niger; test: Inhibition of Aspergillus niger amyloglucosidase using p-nitrophenyl glycoside as substrate assessed as release of p-nitrophenol at 1000 uM by spectrometric analysis relative to control; conditions: not given

SMILES	inhibition
O[C@H]1[C@H]2[C@H](O)CC(F)(F)CN2C[C@H]1O	2.7%
O[C@H]1[C@H]2[C@H](O)C[C@@H](F)CN2C[C@H]1O	11.8%
O[C@@H]1[C@@H]2[C@@H](O)CCCN2C[C@@H]1O	17.7%
O[C@H]1[C@H]2[C@H](O)C[C@H](F)CN2C[C@H]1O	6.4%

system: HepG2; test: Cytotoxicity activity against human HepG2 cells incubated for 48 hrs by CCK-8 assay; assay type: functional, cell-based; conditions: HepG2, 48 h

SMILES	IC50
O[C@H]1[C@H]2[C@H](O)CC(F)(F)CN2C[C@H]1O	> 200 µM
O[C@H]1[C@H]2[C@H](O)C[C@@H](F)CN2C[C@H]1O	> 200 µM
O[C@H]1[C@H]2[C@H](O)C[C@H](F)CN2C[C@H]1O	> 200 µM

system: Escherichia coli; test: Inhibition of Escherichia coli beta-glucuronidase using p-nitrophenyl glycoside as substrate assessed as release of p-nitrophenol at 1000 uM by spectrometric analysis relative to control; conditions: not given

SMILES	inhibition
O[C@H]1[C@H]2[C@H](O)CC(F)(F)CN2C[C@H]1O	0%
O[C@H]1[C@H]2[C@H](O)C[C@@H](F)CN2C[C@H]1O	0%
O[C@@H]1[C@@H]2[C@@H](O)CCCN2C[C@@H]1O	11.3%
O[C@H]1[C@H]2[C@H](O)C[C@H](F)CN2C[C@H]1O	11.3%

system: Penicillium decumbens; test: Inhibition of Penicillium decumbens alpha-L-rhamnosidase using p-nitrophenyl glycoside as substrate assessed as release of p-nitrophenol at 1000 uM by spectrometric analysis relative to control; conditions: not given

SMILES	inhibition
O[C@H]1[C@H]2[C@H](O)CC(F)(F)CN2C[C@H]1O	20.4%
O[C@H]1[C@H]2[C@H](O)C[C@@H](F)CN2C[C@H]1O	8.3%
O[C@@H]1[C@@H]2[C@@H](O)CCCN2C[C@@H]1O	0.26%
O[C@H]1[C@H]2[C@H](O)C[C@H](F)CN2C[C@H]1O	14.4%

organism: Rattus norvegicus; test: Inhibition of rat intestinal Alpha-glucosidase using p-nitrophenyl glycoside as substrate assessed as p-nitrophenol release at 1000 uM by spectrometric analysis relative to control; conditions: not given

SMILES	inhibition
O[C@H]1[C@H]2[C@H](O)CC(F)(F)CN2C[C@H]1O	11.6%
O[C@H]1[C@H]2[C@H](O)C[C@@H](F)CN2C[C@H]1O	22.8%
O[C@@H]1[C@@H]2[C@@H](O)CCCN2C[C@@H]1O	26.5%
O[C@H]1[C@H]2[C@H](O)C[C@H](F)CN2C[C@H]1O	19.1%

target: T2, Alpha-mannosidase (Canavalia ensiformis, UniProt C0HJB3); test: Inhibition of jack bean Alpha-mannosidase using p-nitrophenyl glycoside as substrate; conditions: not given
T2 sequence (C0HJB3 whole entry): T1 sequence (whole entry)

Ki	SMILES
0.006 µM	NCC/N=C1/N[C@H](CO)[C@@H](O)[C@@H](O)[C@@H]1O

target: not listed separately; test: Inhibition of human liver Alpha-mannosidase; conditions: not given

Ki	SMILES
6 µM	NCC/N=C1/N[C@H](CO)[C@@H](O)[C@@H](O)[C@@H]1O

organism: Bos taurus; test: Inhibition of bovine liver beta-galactosidase using p-nitrophenyl glycoside as substrate assessed as release of p-nitrophenol at 1000 uM by spectrometric analysis relative to control; conditions: not given

SMILES	inhibition
O[C@H]1[C@H]2[C@H](O)CC(F)(F)CN2C[C@H]1O	13.3%
O[C@H]1[C@H]2[C@H](O)C[C@@H](F)CN2C[C@H]1O	0.8%
O[C@@H]1[C@@H]2[C@@H](O)CCCN2C[C@@H]1O	48.3%
O[C@H]1[C@H]2[C@H](O)C[C@H](F)CN2C[C@H]1O	0%

system: CAKI-1; test: Cytotoxicity activity against human CAKI-1 cells incubated for 48 hrs by CCK-8 assay; assay type: functional, cell-based; conditions: CAKI-1, 48 h

SMILES	IC50
O[C@H]1[C@H]2[C@H](O)CC(F)(F)CN2C[C@H]1O	> 200 µM
O[C@H]1[C@H]2[C@H](O)C[C@@H](F)CN2C[C@H]1O	> 200 µM
O[C@H]1[C@H]2[C@H](O)C[C@H](F)CN2C[C@H]1O	> 200 µM

target: Alpha glucosidase (Homo sapiens) (UniProt O43451+P10253+P14410+Q2M2H8); test: Inhibition of human Alpha-glucosidase using p-nitrophenyl glycoside as substrate assessed as p-nitrophenol release at 1000 uM by spectrometric analysis relative to control; assay type: protein assay; conditions: not given

SMILES	inhibition
O[C@H]1[C@H]2[C@H](O)CC(F)(F)CN2C[C@H]1O	8.9%
O[C@H]1[C@H]2[C@H](O)C[C@@H](F)CN2C[C@H]1O	5.6%
O[C@@H]1[C@@H]2[C@@H](O)CCCN2C[C@@H]1O	3.4%
O[C@H]1[C@H]2[C@H](O)C[C@H](F)CN2C[C@H]1O	6.6%

target: Alpha-glucosidase (Saccharomyces cerevisiae S288c) (UniProt P53341+P38158+P07265); test: Inhibition of yeast Alpha-glucosidase using p-nitrophenyl glycoside as substrate assessed as p-nitrophenol release at 1000 uM by spectrometric analysis relative to control; assay type: protein assay; conditions: not given

SMILES	inhibition
O[C@H]1[C@H]2[C@H](O)CC(F)(F)CN2C[C@H]1O	0%
O[C@H]1[C@H]2[C@H](O)C[C@@H](F)CN2C[C@H]1O	2.2%
O[C@@H]1[C@@H]2[C@@H](O)CCCN2C[C@@H]1O	0%
O[C@H]1[C@H]2[C@H](O)C[C@H](F)CN2C[C@H]1O	1.7%

organism: Homo sapiens; test: Inhibition of human liver Alpha-mannosidase relative to control; conditions: not given

SMILES	inhibition
OC[C@H]1O[C@H](O[C@H]2[C@H]3[C@H](O)CCCN3C[C@H]2O)[C@H](O)[C@@H](O)[C@@H]1O	inactive
CCCC[C@H]1CCN2C[C@@H](O)[C@@H](O)[C@H]2[C@@H]1O	inactive

system: Oryza sativa; test: Inhibition of rice Alpha-glucosidase using p-nitrophenyl glycoside as substrate assessed as p-nitrophenol release at 1000 uM by spectrometric analysis relative to control; conditions: not given

SMILES	inhibition
O[C@@H]1[C@@H]2[C@@H](O)CCCN2C[C@@H]1O	0%

target: not listed separately; test: Inhibition of Penicillium decumbens alpha-L-rhamnosidase using p-nitrophenyl glycoside as substrate assessed as release of p-nitrophenol by spectrometric analysis; conditions: not given

SMILES	IC50
O[C@@H]1[C@@H]2[C@@H](O)CCCN2C[C@@H]1O	0.13 µM

organism: Sus scrofa; test: Inhibition of porcine kidney Alpha alpha-trehalase using p-nitrophenyl glycoside as substrate assessed as release of p-nitrophenol at 1000 uM by spectrometric analysis relative to control; conditions: not given

SMILES	inhibition
O[C@H]1[C@H]2[C@H](O)CC(F)(F)CN2C[C@H]1O	0%
O[C@H]1[C@H]2[C@H](O)C[C@@H](F)CN2C[C@H]1O	2.5%
O[C@H]1[C@H]2[C@H](O)C[C@H](F)CN2C[C@H]1O	4.1%

system: 786-0; test: Cytotoxicity activity against human 786-0 cells incubated for 48 hrs by CCK-8 assay; assay type: functional, cell-based; conditions: 786-0, 48 h

SMILES	IC50
O[C@H]1[C@H]2[C@H](O)CC(F)(F)CN2C[C@H]1O	> 200 µM
O[C@H]1[C@H]2[C@H](O)C[C@@H](F)CN2C[C@H]1O	> 200 µM
O[C@H]1[C@H]2[C@H](O)C[C@H](F)CN2C[C@H]1O	> 200 µM

organism: Homo sapiens; test: Inhibition of human lysosome beta-glucosidase using p-nitrophenyl glycoside as substrate assessed as release of p-nitrophenol at 1000 uM by spectrometric analysis relative to control; conditions: not given

SMILES	inhibition
O[C@H]1[C@H]2[C@H](O)CC(F)(F)CN2C[C@H]1O	0%
O[C@H]1[C@H]2[C@H](O)C[C@@H](F)CN2C[C@H]1O	0.4%
O[C@@H]1[C@@H]2[C@@H](O)CCCN2C[C@@H]1O	4.8%
O[C@H]1[C@H]2[C@H](O)C[C@H](F)CN2C[C@H]1O	6%

system: Helix pomatia; test: Inhibition of snail beta-mannosidase using p-nitrophenyl glycoside as substrate assessed as release of p-nitrophenol at 1000 uM by spectrometric analysis relative to control; conditions: not given

SMILES	inhibition
O[C@H]1[C@H]2[C@H](O)CC(F)(F)CN2C[C@H]1O	40%
O[C@H]1[C@H]2[C@H](O)C[C@@H](F)CN2C[C@H]1O	0%
O[C@@H]1[C@@H]2[C@@H](O)CCCN2C[C@@H]1O	0%
O[C@H]1[C@H]2[C@H](O)C[C@H](F)CN2C[C@H]1O	5%
